Columns and labels:
HDAC6 human recombinant = HDAC6 human recombinant (Homo sapiens (Human), UniProt Q9UBN7); assay: HDAC enzyme activity inhibition (in vitro), HDAC6 assay; format: biochemical; settings: samples at 0.1, 1, 10, 100 and 1000 nM; 37° C. 60 minutes; fluorescence Ex 390, Em 460
HDAC1 = HDAC1 (Homo sapiens (Human), UniProt Q13547); assay: HDAC enzyme activity inhibition (in vitro), HDAC1 Fluorimetric Drug Discovery Assay Kit; format: biochemical; settings: samples at 100, 1000 and 10000 nM; 37° C. 60 minutes; fluorescence Ex 390, Em 460
HDAC1, sequence (Q13547 whole entry): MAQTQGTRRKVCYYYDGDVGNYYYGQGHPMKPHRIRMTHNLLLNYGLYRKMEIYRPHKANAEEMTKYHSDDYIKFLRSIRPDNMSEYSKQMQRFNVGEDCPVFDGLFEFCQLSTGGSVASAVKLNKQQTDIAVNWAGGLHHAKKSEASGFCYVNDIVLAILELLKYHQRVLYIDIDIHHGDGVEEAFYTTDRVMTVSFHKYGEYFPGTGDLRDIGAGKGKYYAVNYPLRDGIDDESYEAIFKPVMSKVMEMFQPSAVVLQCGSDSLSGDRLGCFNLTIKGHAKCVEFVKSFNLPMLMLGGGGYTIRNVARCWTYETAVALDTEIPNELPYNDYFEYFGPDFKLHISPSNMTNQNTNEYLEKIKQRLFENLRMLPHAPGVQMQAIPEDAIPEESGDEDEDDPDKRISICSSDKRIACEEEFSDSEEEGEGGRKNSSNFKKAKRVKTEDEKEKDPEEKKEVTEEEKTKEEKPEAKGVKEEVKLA

HDAC6 human recombinant, sequence (Q9UBN7 whole entry): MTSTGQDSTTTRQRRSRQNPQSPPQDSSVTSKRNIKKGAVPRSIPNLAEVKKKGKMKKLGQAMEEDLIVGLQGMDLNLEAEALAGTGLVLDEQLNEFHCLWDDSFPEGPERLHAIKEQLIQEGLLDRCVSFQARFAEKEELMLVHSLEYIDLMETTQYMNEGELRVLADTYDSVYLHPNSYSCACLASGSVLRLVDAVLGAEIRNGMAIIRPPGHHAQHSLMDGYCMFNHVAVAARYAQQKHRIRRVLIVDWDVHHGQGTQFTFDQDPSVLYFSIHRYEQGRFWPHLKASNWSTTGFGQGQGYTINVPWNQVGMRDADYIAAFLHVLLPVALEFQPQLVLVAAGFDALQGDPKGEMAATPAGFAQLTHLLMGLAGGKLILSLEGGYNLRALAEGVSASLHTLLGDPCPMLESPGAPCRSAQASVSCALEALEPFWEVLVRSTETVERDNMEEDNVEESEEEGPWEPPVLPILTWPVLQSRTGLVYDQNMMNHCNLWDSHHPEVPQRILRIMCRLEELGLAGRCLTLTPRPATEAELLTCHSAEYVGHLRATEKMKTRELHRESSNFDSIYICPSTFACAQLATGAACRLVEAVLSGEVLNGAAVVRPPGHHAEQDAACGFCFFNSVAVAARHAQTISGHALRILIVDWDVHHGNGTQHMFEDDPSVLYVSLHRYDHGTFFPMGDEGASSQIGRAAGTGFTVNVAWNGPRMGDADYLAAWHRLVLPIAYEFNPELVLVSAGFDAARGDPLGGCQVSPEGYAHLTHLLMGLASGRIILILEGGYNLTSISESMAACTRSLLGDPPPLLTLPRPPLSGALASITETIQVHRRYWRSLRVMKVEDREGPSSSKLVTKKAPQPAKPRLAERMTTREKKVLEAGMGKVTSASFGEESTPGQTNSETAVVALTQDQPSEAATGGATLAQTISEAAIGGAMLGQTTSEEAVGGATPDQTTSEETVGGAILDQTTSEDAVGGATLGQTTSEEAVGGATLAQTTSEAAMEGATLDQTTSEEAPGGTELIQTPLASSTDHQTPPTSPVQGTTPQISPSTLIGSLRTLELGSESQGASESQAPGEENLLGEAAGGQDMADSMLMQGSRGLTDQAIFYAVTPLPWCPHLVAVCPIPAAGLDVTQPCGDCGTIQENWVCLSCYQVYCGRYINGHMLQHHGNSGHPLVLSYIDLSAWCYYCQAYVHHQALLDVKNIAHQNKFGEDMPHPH

| Structure (SMILES) | IC50 (HDAC6 human recombinant) | IC50 (HDAC1) |
| --- | --- | --- |
| CC1(C)C(=O)N(Cc2ccc(-c3nnc(C(F)F)o3)cn2)C(=O)c2cc(-c3ccco3)ccc21 [Compound 113, 2-((5-(5-(difluoromethyl)-1,3,4-oxadiazole-2-yl)pyridine-2-yl)methyl)-7-(furan-2-yl)-4,4-dimethylisoquinoline-1,3(2H,4H)-dione] | 43 nM | > 10000 nM |
| CC(C)CCN1CCN(c2ccc3c(c2)C(=O)N(Cc2ccc(-c4nnc(C(F)F)o4)cn2)C(=O)C3(C)C)CC1 [Compound 132, 2-((5-(5-(difluoromethyl)-1,3,4-oxadiazole-2-yl)pyridine-2-yl)methyl)-7-(4-isopentylpiperazine-1-yl)-4,4-dimethylisoquinoline-1,3(2H,4H)-dione] | 69 nM | > 10000 nM |
| CC1(C)C(=O)N(Cc2ccc(-c3nnc(C(F)F)o3)cn2)C(=O)c2cc(N3CCOCC3)ccc21 [Compound 52, 2-((5-(5-(difluoromethyl)-1,3,4-oxadiazole-2-yl)pyridine-2-yl)methyl)-4,4-dimethyl-7-morpholinoisoquinoline-1,3(2H,4H)-dione] | 40 nM | > 10000 nM |
| CC1(C)C(=O)N(Cc2ccc(-c3nnc(C(F)F)o3)cn2)C(=O)c2ccc(-c3ccccc3F)cc21 [Compound 103, 2-((5-(5-(difluoromethyl)-1,3,4-oxadiazole-2-yl)pyridine-2-yl)methyl)-6-(2-fluorophenyl)-4,4-dimethylisoquinoline-1,3(2H,4H)-dione] | 59 nM | > 10000 nM |
| CC1(C)C(=O)N(Cc2ccc(-c3nnc(C(F)F)o3)cn2)C(=O)c2ccc(C3CCN(C4CCC4)CC3)cc21 [Compound 64, 6-(1-cyclobutylpiperidine-4-yl)-2-((5-(5-(difluoromethyl)-1,3,4-oxadiazole-2-yl)pyridine-2-yl)methyl)-4,4-dimethylisoquinoline-1,3(2H,4H)-dione] | 25 nM | > 10000 nM |
| Cn1c(=O)n(Cc2ccc(-c3nnc(C(F)F)o3)cn2)c(=O)c2ccccc21 [Compound 18, 3-((5-(5-(difluoromethyl)-1,3,4-oxadiazole-2-yl)pyridine-2-yl)methyl)-1-methylquinazoline-2,4(1H,3H)-dione] | 132 nM | > 10000 nM |
| CCCN1CCN(c2ccc3c(c2)C(=O)N(Cc2ccc(-c4nnc(C(F)F)o4)cn2)C(=O)C3(C)C)CC1 [Compound 130, 2-((5-(5-(difluoromethyl)-1,3,4-oxadiazole-2-yl)pyridine-2-yl)methyl)-4,4-dimethyl-7-(4-propylpiperazine-1-yl) isoquinoline-1,3(2H,4H)-dione] | 30 nM | > 10000 nM |
| Cn1c(=O)n(Cc2ccc(-c3nnc(C(F)F)o3)cn2)c(=O)c2ccc(-c3ccccc3F)cc21 [Compound 99, 3-((5-(5-(difluoromethyl)-1,3,4-oxadiazole-2-yl)pyridine-2-yl)methyl)-7-(2-fluorophenyl)-1-methylquinazoline-2,4(1H,3H)-dione] | 149 nM | > 10000 nM |
| O=c1c2ccccc2n(CCN2CCCCC2)c(=O)n1Cc1ccc(-c2nnc(C(F)F)o2)cn1 [Compound 9, 3-((5-(5-(difluoromethyl)-1,3,4-oxadiazole-2-yl)pyridine-2-yl)methyl)-1-(2-(piperidine-1-yl)ethyl)quinazoline-2,4(1H,3H)-dione] | 126 nM | > 10000 nM |
| O=C1c2ccc(Br)cc2C2(CCCCC2)C(=O)N1Cc1ccc(-c2nnc(C(F)F)o2)cn1 [Compound 107, 6′-bromo-2′-((5-(5-(difluoromethyl)-1,3,4-oxadiazole-2-yl)pyridine-2-yl)methyl)-1′H-spiro[cyclohexane-1,4′-isoquinoline]-1′,3′(2′H)-dione] | 148 nM | > 10000 nM |
| CC1(C)C(=O)N(Cc2ccc(-c3nnc(C(F)F)o3)cn2)C(=O)c2ccc(N3CCN(C(C)(C)C)CC3)cc21 [Compound 36, 6-(4-(tert-butyl)piperazine-1-yl)-2-((5-(5-(difluoromethyl)-1,3,4-oxadiazole-2-yl)pyridine-2-yl)methyl)-4,4-dimethylisoquinoline-1,3(2H,4H)-dione] | 24 nM | > 10000 nM |
| CC1(C)C(=O)N(Cc2ccc(-c3nnc(C(F)F)o3)cn2)C(=O)c2ccc(N3CCN(CC(F)(F)C(F)(F)C(F)(F)F)CC3)cc21 [Compound 140, 2-((5-(5-(difluoromethyl)-1,3,4-oxadiazole-2-yl)pyridine-2-yl)methyl)-6-(4-(2,2,3,3,4,4,4-heptafluorobutyl)piperazine-1-yl)-4,4-dimethylisoquinoline-1,3(2H,4H)-dione] | 535 nM | > 10000 nM |
| CC1(C)C(=O)N(Cc2ccc(-c3nnc(C(F)F)o3)cn2)C(=O)c2ccc(N3CCN(C4CC4)CC3)cc21 [Compound 47, 6-(4-cyclopropylpiperazine-1-yl)-2-((5-(5-(difluoromethyl)-1,3,4-oxadiazole-2-yl)pyridine-2-yl)methyl)-4,4-dimethylisoquinoline-1,3(2H,4H)-dione] | 49 nM | > 10000 nM |
| CC1(C)C(=O)N(Cc2ccc(-c3nnc(C(F)F)o3)cn2)C(=O)c2ccc(C3CCN(C4COC4)CC3)cc21 [Compound 61, 2-((5-(5-(difluoromethyl)-1,3,4-oxadiazole-2-yl)pyridine-2-yl)methyl)-4,4-dimethyl-6-(1-(oxetan-3-yl)piperidine-4-yl)isoquinoline-1,3(2H,4H)-dione] | 35 nM | > 10000 nM |
| CN(C)CCn1c(=O)n(Cc2ccc(-c3nnc(C(F)F)o3)cn2)c(=O)c2ccccc21 [Compound 22, 3-((5-(5-(difluoromethyl)-1,3,4-oxadiazole-2-yl)pyridine-2-yl)methyl)-1-(2-(dimethylamino)ethyl)quinazoline-2,4(1H,3H)-dione] | 210 nM | > 10000 nM |
| COCCn1c(=O)c2ccccc2n(Cc2ccc(-c3nnc(C(F)F)o3)cc2)c1=O [Compound 75, 1-(4-(5-(difluoromethyl)-1,3,4-oxadiazole-2-yl)benzyl)-3-(2-methoxyethyl)quinazoline-2,4(1H,3H)-dione] | 368 nM | > 10000 nM |
| CC1(C)C(=O)N(Cc2ccc(-c3nnc(C(F)F)o3)cn2)C(=O)c2cc(C3=CCS(=N)(=O)CC3)ccc21 (stereo not drawn) [Compound 126, 2-((5-(5-(difluoromethyl)-1,3,4-oxadiazole-2-yl)pyridine-2-yl)methyl)-7-(1-imino-1-oxydo-1,2,3,6-tetrahydro-1λ^6-thiopyran-4-yl)-4,4-dimethylisoquinoline-1,3(2H,4H)-dione] | 32 nM | > 10000 nM |
| O=c1c2ccccc2n(Cc2ccc(-c3nnc(C(F)F)o3)cn2)c(=O)n1CCc1ccccc1 [Compound 77, 1-((5-(5-(difluoromethyl)-1,3,4-oxadiazole-2-yl)pyridine-2-yl)methyl)-3-phenethylquinazoline-2,4(1H,3H)-dione] | 141 nM | > 10000 nM |
| CC1(C)C(=O)N(Cc2ccc(-c3nnc(C(F)F)o3)cn2)C(=O)c2ccccc21 [Compound 8, 2-((5-(5-(difluoromethyl)-1,3,4-oxadiazole-2-yl)pyridine-2-yl)methyl)-4,4-dimethylisoquinoline-1,3(2H,4H)-dione] | 30 nM | > 10000 nM |
| CCC1(CC)C(=O)N(Cc2ccc(-c3nnc(C(F)F)o3)cn2)C(=O)c2ccc(N3CCN(C(C)=O)CC3)cc21 [Compound 136, 6-(4-acetylpiperazine-1-yl)-2-((5-(5-(difluoromethyl)-1,3,4-oxadiazole-2-yl)pyridine-2-yl)methyl)-4,4-diethylisoquinoline-1,3(2H,4H)-dione] | 55 nM | > 10000 nM |
| Cn1c(=O)n(Cc2ccc(-c3nnc(C(F)F)o3)cn2)c(=O)c2cc(-c3ccccc3F)ccc21 [Compound 89, 3-((5-(5-(difluoromethyl)-1,3,4-oxadiazole-2-yl)pyridine-2-yl)methyl)-6-(2-fluorophenyl)-1-methylquinazoline-2,4(1H,3H)-dione] | 54 nM | > 10000 nM |
| CC1(C)C(=O)N(Cc2ccc(-c3nnc(C(F)F)o3)cn2)C(=O)c2ccc(N3CCN(C4COC4)CC3)cc21 [Compound 30, 2-((5-(5-(difluoromethyl)-1,3,4-oxadiazole-2-yl)pyridine-2-yl)methyl)-4,4-dimethyl-6-(4-(oxetan-3-yl)piperazine-1-yl)isoquinoline-1,3(2H,4H)-dione] | 46 nM | > 10000 nM |
| Cn1c(=O)n(Cc2ccc(-c3nnc(C(F)F)o3)cn2)c(=O)c2cc(-c3cccnc3)ccc21 [Compound 91, 3-((5-(5-(difluoromethyl)-1,3,4-oxadiazole-2-yl)pyridine-2-yl)methyl)-1-methyl-6-(pyridine-3-yl)quinazoline-2,4(1H,3H)-dione] | 33 nM | > 10000 nM |
| CC(C)N1CCN(c2ccc3c(c2)C(C)(C)C(=O)N(Cc2ccc(-c4nnc(C(F)F)o4)cn2)C3=O)CC1 [Compound 26, 2-((5-(5-(difluoromethyl)-1,3,4-oxadiazole-2-yl)pyridine-2-yl)methyl)-6-(4-isopropylpiperazine-1-yl)-4,4-dimethylisoquinoline-1,3(2H,4H)-dione] | 22 nM | > 10000 nM |
| O=C1c2ccccc2C(=O)N1Cc1ccc(-c2nnc(C(F)F)o2)cc1F [Compound 2, 2-(4-(5-(difluoromethyl)-1,3,4-oxadiazole-2-yl)-2-fluorobenzyl)isoindoline-1,3-dione] | 561 nM | > 10000 nM |
| CC1(C)C(=O)N(Cc2ccc(-c3nnc(C(F)F)o3)cn2)C(=O)c2cc(C3CCN(S(C)(=O)=O)CC3)ccc21 [Compound 128, 2-((5-(5-(difluoromethyl)-1,3,4-oxadiazole-2-yl)pyridine-2-yl)methyl)-4,4-dimethyl-7-(1-(methylsulfonyl)piperidine-4-yl)isoquinoline-1,3(2H,4H)-dione] | 70 nM | > 10000 nM |
| COc1ccc(-c2cccc3c2C(=O)N(Cc2ccc(-c4nnc(C(F)F)o4)cn2)C(=O)C3(C)C)cn1 [Compound 94, 2-((5-(5-(difluoromethyl)-1,3,4-oxadiazole-2-yl)pyridine-2-yl)methyl)-8-(6-methoxypyridine-3-yl)-4,4-dimethylisoquinoline-1,3(2H,4H)-dione] | 116 nM | > 10000 nM |

— patent US12440484B2, “1,3,4-oxadiazole homophthalimide derivative compounds as histone deacetylase 6 inhibitor, and the pharmaceutical composition comprising the same” (Chong Kun Dang Pharmaceutical Corp., priority 2019, dated 2025)
